Data: US20050208496A1, “Methods of testing for bronchial asthma or chronic obstructive pulmonary disease” (Genox Research, Inc., priority 2002, published 2005)

System: respiratory epithelial cells
Conditions: lot 2 Day 7 AI

## IL-13: human IL-13 (Peprotech, Inc.) added to the medium at 50 ng/mL to stimulate respiratory epithelial cells
  AI770116 (70124_at) expression change: −5.1
  AI798733 (64163_at) expression change: −3.3
  AI829641 (84270_at) expression change: −39.5
  AI917602 (49985_at) expression change: −4.1
  AI923984 33546_at expression change: −4.4
  AI948584 48086_at expression change: −13.1
  AI971023 48539_at expression change: −5.3
  AI984780 (52384_s_at) expression change: −4
  AL040936 (45684_at) expression change: −4.5
  AQP5 32909_at expression change: −4.2
  ARHGEF4 36524_at expression change: −6.6
  ARHV (82231_at) expression change: −4
  AW022213 (79520_at) expression change: −5.4
  AW025596 52634_at expression change: −9
  AW025596 52637_g_at expression change: −20.6
  B4GALT5 56373_at expression change: −2.5
  BPGM (51261_at) expression change: −2.4
  CBLB 514_at expression change: −3.2
  CBLB 35632_at expression change: −2.1
  COL12A1 (44730_at) expression change: −6.8
  CRABP-II 1057_at expression change: −12.7
  CRABP-II 41783_at expression change: −11.3
  Clorf28 50075_at expression change: −5.7
  DHCR24 (74557_s_at) expression change: −6.8
  DKFZp434K1210 44682_at expression change: −2.4
  DREV1 (63813_at) expression change: −2.1
  DSC3 (79615_at) expression change: −2.4
  DSC3a, b 47119_at expression change: −2.7
  DSC3a, b 79615_at expression change: −2.4
  EIF4EBP1 (54152_at) expression change: −2.7
  EVPK 39569_at expression change: −2.7
  FKBP5 (46271_at) expression change: −21.2
  FLJ10298 (62490_f_at) expression change: −5.4
  FLJ10718 52072_at expression change: −8.7
  FLJ12541 43546_at expression change: −7.4
  FLJ20048 (49196_at) expression change: −2
  FLJ20373 54030_at expression change: −1.7
  FLJ20500 43853_at expression change: −2.4
  FLJ23309 45563_f_at expression change: −2.4
  FLJ23516 47534_at expression change: −3.2
  GABRP 40339_at expression change: −28
  GAS41 (64121_at) expression change: −2
  GJA1 32531_at expression change: −5.5
  GK (61873_at) expression change: −2.1
  GPD2 42720_at expression change: −2.8
  GSTA3 58023 at expression change: −9.1
  HEY1 44783_s_at expression change: −9.2
  HIN-1 (46200_at) expression change: −38.7
  HSPC195 44705_at expression change: −5.1
  ID1 36619_r_at expression change: −2.5
  IL20RA 42969_at expression change: −2.9
  IVL 36355_at expression change: −10.6
  K1IAA1102 (64345_s_at) expression change: −4.9
  KCNMA1 (47575_g_at) expression change: −7
  KCNMA1 (53796_at) expression change: −6.1
  KIAA0878 (48793_at) expression change: −2
  KIAA1376 (62972_at) expression change: −3.9
  KIAA1376 (64047_at) expression change: −4.2
  KIAA1547 58531_g_at expression change: −2.6
  KLF7 (42769_at) expression change: −4.7
  KRT6B (62998_at) expression change: −5.5
  LCE 45605_at expression change: −2.6
  LMO4 1452_at expression change: −3.9
  LOC51297 (49616_at) expression change: −24.3
  LOC51297 (55440_at) expression change: −33.7
  LOC51297 (55442_g_at) expression change: −33.7
  LOC51316 (63342_at) expression change: −5
  LOC55893 (64071_at) expression change: −2.6
  LOC129642 (42065_at) expression change: −4.9
  LOC129642 (58288_at) expression change: −4.5
  LOC131177 (43849_s_at) expression change: −13.3
  LOC131177 (45394_s_at) expression change: −7.1
  MGC12536 46924_at expression change: −3.1
  MGC14128 55924_at expression change: −4.1
  MGC14128 (51669_r_at) expression change: −5
  MGC14597 (46030_at) expression change: −5.4
  MGC16207 43412_s_at expression change: −2.8
  MGC16207 (65876_at) expression change: −3.4
  N52554 47432_at expression change: −1.7
  N71183 52473_at expression change: −3
  PR01489 57777_at expression change: −4.5
  PSCA (63958_at) expression change: −9.8
  RGC32 (57044_s_at) expression change: −2.4
  RIN1 1778_g_at expression change: −7.5
  SCNN1B 39682_at expression change: −15
  SCYB14 (65823_at) expression change: −2.5
  SEMA4B (46709_at) expression change: −2.5
  SERPINA3 (75248_at) expression change: −46.4
  SLC11A3 (45826_at) expression change: −3.8
  SLC34A2 (48048_at) expression change: −4.3
  SPON2 52576_s_at expression change: −5.8
  SPRR1B 37160_at expression change: −2.8
  STEAP 40297_at expression change: −3.7
  T52027 (63150_at) expression change: −3.5
  TGFBI (68339_at) expression change: −4.9
  TNFAIP2 (74633_at) expression change: −4.2
  TNNT1 36113_s_at expression change: −12.2
  TNRC3 41246_at expression change: −5
  TPM1 36790_at expression change: −4.8
  TPM1 36791_g_at expression change: −6
  TPM1 36792_at expression change: −6.3
  UCP2 37591_at expression change: −45.5
  UGB 39220_at expression change: −62.8
  VEGFC 1934_s_at expression change: −4.3
  VIM 34091_s_at expression change: −11.6
  W55956 46700_at expression change: −2.7
  W72331 49486 at expression change: −11.4
